Data: patent US20100319073A1, “GDE Compositions and Methods” (The Johns Hopkins University, priority 2005, published 2010)

Tested on: clone 45.1 (GDE2)
Assay: Reverse Northern blot of ventral spinal cord explants grown with or without retinol (differential subtraction screen)
Format: cell-based, chick
Details: explants exposed to retinol, compared with GAPDH
Method: Ventral neural explants were dissected from brachial level HH St17 chick embryos and cultured as described previously for 18 hours (1). The screen was designed to maximize isolation of genes responsive to motor neuron-derived retinoids however genes responsive to paraxial mesoderm-derived retinoids would also have been included. RNA from 100 explants was isolated using Trizol (GIBCO-BRL). cDNAs were generated and amplified using the Marathon cDNA PCR Amplification kit (Stratagene) and the subtraction procedure carried out using the Stratagene PCR Select Suppression kit. Reverse Northern blot analysis was performed as described in the latter kit.
Spinal motor neuron generation in the chick requires the integration of three different extrinsic signals: sonic hedgehog, fibroblast growth factors, and retinoic acid (RA) (2, 3). All three signaling pathways have been implicated in initial dorsal-ventral patterning of progenitor domains in the spinal cord (FIG. 1A). However, RA signaling is also necessary for the induction of Oligodendrocyte transcription factor 2 (Olig2) in progenitors, and their subsequent differentiation into postmitotic motor neurons (FIG. 1A) (2). […]

CC1=C(/C=C/C(C)=C/C=C/C(C)=C/CO)C(C)(C)CCC1 [retinol]
increase in expression of clone 45.1: approximately 50 fold
